{"source": "paper PMC9007350", "about": "“Aurintricarboxylic acid is a canonical disruptor of the TAZ-TEAD transcriptional complex” (PLoS ONE, 2022)", "key": {"NIH3T3 cells": {"tested_on": "NIH3T3 cells", "assay": "LDH cytotoxicity assay, NIH3T3", "type": "cell-based", "conditions": "NIH3T3, concentrations used in soft agar assay", "procedure": "(§1) Soft agar colony growth assay was performed as previously described. The colonies were counted using Image-Pro Plus 7.0 software (Media Cybernetics). ATA cytotoxicity was assessed using the CyQUANT LDH Cytotoxicity Assay Kit (ThermoFisher) and was performed as per the manufacturer’s protocol.\nNIH3T3 and HEK293 cells were treated with the indicated concentrations of ATA and the cytotoxicity was evaluated by calculating the amount of intracellular LDH released into the media. LDH absorbance after complete cell lysis is considered as 100% cytotoxicity and the absorbance after ATA treatment was normalized accordingly. (TIF) Click here for additional data file."}, "[1]": {"tested_on": "TC/TEAD transcriptional activity in HEK293 cells expressing TAZ-CAMTA1", "assay": "TC/TEAD dual luciferase reporter assay", "type": "cell-based", "conditions": "ATA 10 μM, 48 h", "procedure": "NIH3T3 and HEK293 cells were obtained from the American Type Tissue Collection (ATCC, Manassas, VA) and cultured in DMEM containing 10% fetal bovine serum and penicillin/streptomycin. A TEAD dual luciferase reporter assay was performed as previously described. Cells were treated with vehicle control or ATA (10 μM) for 48 h before measuring the luciferase activity or processing the samples for RNA extraction. Each experiment was repeated at least 2–3 times."}, "TAZ": {"target": "T1, TAZ (Homo sapiens, UniProt Q9GZV5)", "T1 construct": "ThermoFluor assays measuring the melting temperatures (Tm) of full-length TAZ or TEAD in the presence of ATA; strep (C); made in house; host or cells: Escherichia coli BL21(DE3)pLysS", "T1 sequence (Q9GZV5 whole entry)": "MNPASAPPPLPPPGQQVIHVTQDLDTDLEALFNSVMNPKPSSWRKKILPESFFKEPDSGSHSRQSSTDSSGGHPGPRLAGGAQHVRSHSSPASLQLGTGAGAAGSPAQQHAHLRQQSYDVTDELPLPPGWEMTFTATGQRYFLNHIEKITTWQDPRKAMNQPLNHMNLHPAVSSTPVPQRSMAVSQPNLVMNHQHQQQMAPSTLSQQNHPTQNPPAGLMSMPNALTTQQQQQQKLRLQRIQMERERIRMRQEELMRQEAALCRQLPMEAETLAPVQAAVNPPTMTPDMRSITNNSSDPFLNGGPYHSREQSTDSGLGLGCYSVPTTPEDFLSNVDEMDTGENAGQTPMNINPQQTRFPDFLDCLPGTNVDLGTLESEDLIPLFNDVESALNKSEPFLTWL", "assay": "ThermoFluor assay, TAZ", "type": "binding", "conditions": "full-length TAZ, protein 5 μM", "procedure": "To assess changes in protein stability, a dye-based thermal melting assay (ThermoFluor) was used. Purified protein (TAZ or TEAD4), ATA, and Protein Thermal Shift dye (ThermoFisher) were mixed in 96-well plates. The final concentration of the protein was 5 μM. The melting temperature was measured using LightCycler 480 (Roche). Each experiment was repeated at least twice."}, "[2]": {"tested_on": "NIH3T3 cells expressing TAZ-CAMTA1", "assay": "Soft agar colony growth assay, TAZ-CAMTA1", "type": "cell-based", "procedure": "as §1"}, "[3]": {"target": "T2, TAZ-TEAD complex (full-length His-TAZ and FLAG-TEAD4) (Homo sapiens, UniProt Q15561)", "T2 construct": "human TEAD4 (1–434) (UniProt—Q15561); strep (N, cleaved yes); made in house; host or cells: Escherichia coli BL21(DE3)pLysS", "T2 sequence (Q15561 whole entry, one chain of several)": "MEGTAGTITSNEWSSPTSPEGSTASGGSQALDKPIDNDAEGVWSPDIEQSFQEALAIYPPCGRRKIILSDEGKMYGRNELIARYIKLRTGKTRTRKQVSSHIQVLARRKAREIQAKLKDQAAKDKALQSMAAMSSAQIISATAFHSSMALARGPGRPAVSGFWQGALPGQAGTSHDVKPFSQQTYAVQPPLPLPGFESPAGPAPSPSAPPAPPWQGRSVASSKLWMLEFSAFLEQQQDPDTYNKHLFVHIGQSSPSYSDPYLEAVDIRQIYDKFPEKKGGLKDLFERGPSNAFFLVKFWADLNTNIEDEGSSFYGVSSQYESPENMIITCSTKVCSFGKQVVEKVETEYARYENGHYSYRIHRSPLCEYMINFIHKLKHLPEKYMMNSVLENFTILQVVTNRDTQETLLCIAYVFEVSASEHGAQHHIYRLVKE", "assay": "TAZ-TEAD AlphaLISA assay", "type": "binding", "conditions": "10 nM TAZ, 15 nM TEAD4", "from_the_text": "The cDNAs of human TEAD4 (1–434) (UniProt—Q15561) and TAZ (UniProt—Q9GZV5) were codon-optimized according to a proprietary algorithm developed by DAPCEL, Inc, synthesized, and inserted into the pET-3a vector between restriction sites NdeI and BamHI (GenScript). The final construct contained a N-terminal strep-TEV-FLAG tag for TEAD4, a 6x His tag at the N-terminus and a strep tag at the C-terminus of TAZ (GenScript).\nFull-length TAZ and TEAD proteins were used in this assay. The codon-optimized cDNAs yielded sufficient protein amounts to carry out the high-throughput screen (S1A Fig).\nPurified full-length His-TAZ and FLAG-TEAD4 proteins were mixed with nickel chelate AlphaLISA Acceptor Beads and anti-FLAG Alpha Donor Beads (PerkinElmer) in alpha assay buffer (10mM Tris pH 8.0, 150mM NaCl, 0.1% BSA, 0.01% Tween 20, 10 mM DTT). To determine the optimum protein concentration that produced the highest total signal intensity, His-TAZ was used at a concentration range of 0 nM to 20 nM and FLAG-TEAD4 at 0.1 nM to 1000 nM. The maximal signal occurred at 10 nM TAZ and 15 nM TEAD4 (S1B Fig). Then, compounds from the library plates were added at a final concentration of 10 μM. The mixtures were incubated in the dark for 2h at room temperature and emission at 615 nm was measured using the alpha-compatible EnSpire (PerkinElmer) and Synergy Neo2 (BioTek) multimode plate readers. […]"}, "[4]": {"target": "T3, YAP-TEAD complex (human YAP (61-100) probe, human TEAD4 (217-434)) (Homo sapiens, UniProt Q15561)", "T3 construct": "made in house", "T3 sequence (Q15561 217-434, one chain of several)": "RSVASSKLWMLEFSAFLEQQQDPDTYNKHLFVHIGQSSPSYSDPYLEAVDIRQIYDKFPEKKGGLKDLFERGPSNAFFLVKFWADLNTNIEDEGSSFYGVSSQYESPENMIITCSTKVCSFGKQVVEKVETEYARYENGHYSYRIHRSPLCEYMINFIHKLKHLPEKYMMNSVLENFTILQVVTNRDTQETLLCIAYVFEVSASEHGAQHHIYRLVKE", "assay": "YAP-TEAD fluorescence polarization assay", "type": "binding", "conditions": "TEAD4 350 nM, YAP probe 25 nM; read-out: IC50, YAP-TEAD FP assay", "procedure": "Human YAP (61–100), human TAZ (23–57) and mouse Vgll1 (26–51) peptide probes were used; all the probes had carboxyfluorescein labels. Human TEAD4 (217–434) was used in the assay at a concentration of 350 nM and the peptide probe concentration was 25 nM. Disruptors were titrated at concentrations ranging from 0–150 μM to the probe-TEAD complex, and the mixtures were incubated at 25°C for 20 min. Then, polarization measurements were taken using a Victor3 (PerkinElmer) plate reader."}}, "data": [{"compound": "O=C(O)C1=CC(=C(c2ccc(O)c(C(=O)O)c2)c2ccc(O)c(C(=O)O)c2)C=CC1=O", "note": "[ATA, aurintricarboxylic acid]", "values": [{"measurement": "cytotoxicity, LDH release", "setting": "NIH3T3 cells", "value": "did not show cytotoxicity"}, {"measurement": "TC-dependent increase of TEAD luciferase reporter activity", "setting": "[1]", "value": "significantly reduced"}, {"measurement": "melting temperature (Tm) of TAZ + ATA", "setting": "TAZ", "value": 53.1, "unit": "°C"}, {"measurement": "TC-driven soft agar colony growth", "setting": "[2]", "value": "dose-dependent reduction"}, {"measurement": "IC50", "setting": "[3]", "value": 0.035, "unit": "µM"}, {"measurement": "IC50", "setting": "[4]", "value": 160, "unit": "µM"}]}]}
